# Measured values published in paper PMC5963734 (Neuron, 2018).
# Test system: PSD-95 - α-actinin interaction
# Details: acute forebrain slices, 100 μM NMDA for 5 min; Figure 7
compound,measurement,value
CN[C@H](CC(=O)O)C(=O)O [NMDA],co-IP of CaM with PSD-95 after NMDA,strongly increased
same,co-IP of α-actinin with PSD-95 after NMDA,nearly abolished
